Source: PubChem BioAssay AID652228 (The Scripps Research Institute Molecular Screening Center, 2013)
Active and inactive are the calls of the source.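 The calls were made as follows: active = protein phosphatase 1 activity cut by at least 70% at 50 µM; inactive = inhibition below 70%.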

Target: Serine/threonine-protein phosphatase PP1-alpha catalytic subunit (Homo sapiens) (UniProt P62136)
Experiment: PP1 inhibition of phosphohistone dephosphorylation, late-stage follow-up, biochemical, radiolabel, single concentration, powder samples (AID 652228)
Conditions: purified PP1alpha, 33P-phosphohistone dephosphorylation, scintillation; at 50 µM; stronger effect = higher value

Serine/threonine-protein phosphatase PP1-alpha catalytic subunit (Homo sapiens), sequence (P62136 whole entry, looked up): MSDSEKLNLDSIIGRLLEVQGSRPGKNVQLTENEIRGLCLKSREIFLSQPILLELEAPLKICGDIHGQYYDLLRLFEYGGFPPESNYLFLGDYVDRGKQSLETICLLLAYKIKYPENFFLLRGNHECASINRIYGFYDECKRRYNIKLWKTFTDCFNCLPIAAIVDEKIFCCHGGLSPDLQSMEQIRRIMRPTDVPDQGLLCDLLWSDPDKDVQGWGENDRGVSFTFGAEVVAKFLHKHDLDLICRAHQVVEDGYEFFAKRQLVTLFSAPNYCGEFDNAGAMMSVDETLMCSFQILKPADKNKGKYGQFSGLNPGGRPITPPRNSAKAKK

Compound	inhibition
CN1CCN(C(c2ccccc2)c2cc(Cl)c3cccnc3c2O)CC1 (stereo not given)	4.84% (inactive)
Oc1c(C(c2ccccn2)N2CCN(c3ccccc3F)CC2)cc(Cl)c2cccnc12 (stereo not given)	35.7%
CN1CCN(C(c2ccncc2)c2cc(Cl)c3cccnc3c2O)CC1 (stereo not given)	4.17% (inactive)
CN1CCN(C(c2ccccn2)c2cc(Cl)ccc2O)CC1 (stereo not given)	2.44% (inactive)
Oc1c(CN2CCN(c3ccccc3)CC2)cc(Cl)c2cccnc12	18.5% (inactive)
CN1CCN(C(c2ccccn2)c2cc(Cl)c3ccccc3c2O)CC1 (stereo not given)	5.68% (inactive)
Oc1c(CN2CCN(c3ccccn3)CC2)cc(Cl)c2cccnc12	12.6% (inactive)
CN1CCN(C(c2cccnc2)c2cc(Cl)c3cccnc3c2O)CC1 (stereo not given)	10% (inactive)

Second part, the molecule after the results:

inhibition	Compound
43.2%	CC1CCN(C(c2ccccn2)c2cc(Cl)c3cccnc3c2O)CC1 (stereo not given)
-38.1% (inactive)	CN1CCN(C(c2ccccn2)c2cc(Cl)c3cccnc3c2O)CC1 (stereo not given)
-51.6% (inactive)	CCN1CCN(C(c2ccccn2)c2cc(Cl)c3cccnc3c2O)CC1 (stereo not given)
57.4%	Oc1c(C(c2ccccn2)N2CCC(Cc3ccccc3)CC2)cc(Cl)c2cccnc12 (stereo not given)
15.6% (inactive)	CCOC(c1ccccn1)c1cc(Cl)c2cccnc2c1O (stereo not given)
49.1%	CC(C)(C)OC(=O)N1CCN(C(c2ccccn2)c2cc(Cl)c3cccnc3c2O)CC1 (stereo not given)
59%	Oc1c(C(c2ccccn2)N2CCNCC2)cc(Cl)c2cccnc12 (stereo not given)
